The test system of one series is Csp1 transcripts. In words: Csp1 transcript induction (Northern blot) in Jurkat T cells. To be noted: human Jurkat T cells, through eight hours. The series is classed as cell-based. The method, then:
16A. Calcium signaling induces Csp 1 expression in synergy with PKC pathways. Csp 1 Northern blot of Jurkat T cells were treated with either calcium ionophore (I), PMA (P) or both (I+P) for the indicated durations. GAPDH transcripts were used as sample loading control.
16B. Calcium-dependent Csp 1 induction requires calcineurin.

Series [1] has as its system calcineurin-dependent nuclear import of NF-AT4. In words: Calcineurin-dependent NF-AT4 nuclear import assay in BHK cells. The conditions noted are these: for inhibition of NF-AT nuclear import driven by constitutively active calcineurin (ΔCnA): co-expressed with NF-AT and constitutively active ΔCnA in BHK cells; for inhibition of NF-AT4 nuclear import stimulated by calcium ionophore: co-expressed with GFP-NF-AT4 in BHK cells. The series is classed as cell-based, baby hamster. The method, then: This assay monitors the subcellular location of GFP-tagged NF-AT4, a transcription factor that resides in the cytoplasm of unstimulated BHK cells. Following stimulation of BHK cells with ionomycin, a calcium ionophore, GFP-NF-AT4 translocates to the nucleus with a t1/2 of five minutes. This translocation event is accompanied by a dephosphorylation of NF-AT4 in a process dependent on calcineurin.
Baby hamster kidney cells were grown on sterile glass coverslips in DMEM media with 10% fetal calf serum and transfected using calcium phosphate methods (Heald et al., 1993). […] NF-AT4 expression was based on the vector pcDNA3-GFP-NF-AT4 (Shibasaki et al., 1996). Transfected cells were grown for 18 hours prior to drug treatments. Cells were fixed 30 minutes after ionomycin (0.5 uM) treatment or washout using 3% formaldehyde in PBS for 10 minutes at room temperature.

In series [2] the test system is calcineurin-dependent NF-AT dephosphorylation. In words: NF-AT4 dephosphorylation (western blot mobility) in BHK cells. The series is classed as cell-based, baby hamster. The conditions noted are these: co-expressed with NF-AT4 in BHK cells; calcium ionophore treatment. The method, then: 3B. […] The transfected cells were either left untreated or treated with 1 μM calcium inonphore for 30 min, and the mobility of NF-AT4 was assessed by western blotting.
A general note: Immunoblotting shows a protein as a band on a membrane.

In series [3] the test system is human calcineurin A subunit. The series can be described thus: Yeast two-hybrid interaction with calcineurin. The series is classed as binding. The text has this: Potential targets of calcineurin, which is involved in neuronal calcium signaling, were identified using two hybrid screens of a murine hippocampal cDNA library as the prey and using calcineurin as a bait.
human calcineurin A subunit, sequence (P63098 2-170, further chain): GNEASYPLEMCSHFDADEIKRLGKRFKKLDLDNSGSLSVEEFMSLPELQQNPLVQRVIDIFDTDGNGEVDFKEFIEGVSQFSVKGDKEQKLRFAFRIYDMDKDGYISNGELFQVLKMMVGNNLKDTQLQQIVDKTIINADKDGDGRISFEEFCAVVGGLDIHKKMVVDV
The calcineurin bait vector was constructed by cloning the human calcineurin A subunit (ΔCnAD130N; Zhu and McKeon, 1999) into pBRIDGE (Clontech) to create a fusion protein with the Gal4 DNA binding domain. The calcineurin regulatory B subunit (CnB) was cloned into the same pBridge vector under a separate, constitutive promoter. To test for interactions between calcineurin and proteins expressed in the hippocampus, the yeast strain CG1945, in which HIS3 expression is controlled by the Gal1 upstream activating sequence (UAS), was transfected with both the pBRIDGE vector as well as vector DNA from the murine hippocampal cDNA library. Cells were selected for growth on SD media lacking leucine, tryptophan, methionine, and histidine (-LWMH) containing 25 mM 3-aminotriazole, an inhibitor of alternative histidine biosynthetic pathways (REF). […]

Series [4] concerns the target T1, purified bovine brain calcineurin (Bos taurus, UniProt P48452+P63099).
T1 construct: 50 nM purified bovine brain calcineurin; from tissue; host or cells: bovine brain
The series can be described thus: Para-nitrophenyl phosphate (pNPP) hydrolysis assay. In kind it is biochemical. The conditions noted are these: 60 mM pNPP, 50 nM calcineurin, 0-100 nM GsT fusion protein. The method, then: To determine whether the calcipressins; inhibit calcineurin in a manner similar to the immunosuppressants, we assayed pNPP hydrolysis by calcineurin-calcipressin complexes.
Reactions were performed for 30 min at 30 degrees, and stopped by the addition of 950 uL of 1M NaOH. The reaction product was measured by absorbance at 405 nm in a Beckman Du 64 spectophotometer.

Series [5] concerns the target T1, purified bovine brain calcineurin. In words: Phosphorylated RII-peptide calcineurin phosphatase assay. The series is classed as biochemical. The conditions noted are these: PKA-phosphorylated RII peptide as substrate; GsT fusion proteins 0-20 nM, 15 minutes; read-out: 50 percent inhibition concentrations (IC50) for calcineurin. The method, then:
The RII peptide of the cAMP-regulatory subunit of PKA was produced as a fusion protein with GsT and labeled with ^32P-phosphate using protein kinase A followed by glutathione-Sepharose affinity purification (Milan et al., 1994). The radiolabeled RII GsT fusion protein was incubated with 1.5u of purified bovine brain calcineurin (ProMega) and 200 nM calmodulin (Sigma) in the presence of 0-20 nM GsT-Csp1 or GsT-Csp2 for 15 minutes. The reaction was stopped by the addition of an equal volume of 2xSDS sample buffer. After fractionation by SDS-polyacrylamide gel electrophoresis, free phosphate was measured by PhosphorImager analysis.

Series [6] is described as follows: Solubility assay upon expression in E. coli. The series is classed as physicochemical. The text has this:
Calcineurin consists of two subunits (Klee et al., 1998), CnA (60 kDa) and CnB (18 kDa), neither of which is soluble when expressed individually in E. coli. The structure of calcineurin was studied by taking advantage of the high level of calcineurin in the central nervous system to directly isolate it from bovine brain (Griffith et al., 1995). […] It is likely that the insolublility of Csp expression in E. coli is due to the absence of binding proteins such as calcineurin, thereby leaving hydrophobic stretches of amino acids uncomplemented (FIG. 1). As with the calcineurin subunits, it is possible that Csp 1 and Csp2 interact with calcineurin in a manner that will form a properly folded, soluble complex. […] The E. coli host containing the calcineurin expression vector will be transformed with these Csp vectors and selected for kanamycin resistance.
Alternatively the given protein or complex may be obtained in sufficient quantities and quality and crystallization protocols may be attempted. […] The skilled artisan will appreciate that other protein expression systems, such as baculovirus, may also be used.

Series [7] has as its system BHK cells transfected with CnA and CnB. The series can be described thus: Calcium ionophore-induced apoptosis of BHK cells transfected with CnA/CnB. To be noted: ionomycin, low serum. The series is classed as cell-based, baby hamster. The method, then:
FIG. 7: Cells transfected with CnA/CnB (0.5 μg each) were serum deprived for four hours and stimulated with ionomycin (0.25 μM) for one hour in low serum media alone or containing CsA (800 nM), 6 MeAla-CsA (800 nM), and MeBm2t-CsA (800 nM), FK506 (100 nM).
Calcium signaling plays an important and yet mechanistically vague role in a wide range of cell death, including neuronal cell death in stroke and lymphocyte cell death during positive and negative selection. To test the possibility that calcineurin, a calcium-activated phosphatase, participates in cell death, we asked if cells overexpressing calcineurin would show an enhanced sensitivity to calcium ionophore-induced cell death (Shibasaki and McKeon, 1995). We co-transfected calcineurin A and B subunits into baby hamster kidney (BHK) cells and treated them with calcium ionophore approximately 16 hours later.

This is an account of results in patent US7396905B1, “Calcipressins: endogenous inhibitors of calcineurin, uses and reagents related thereto” (priority 1999, dated 2008).

In the case of `CCCCCCCCCCCCCC(=O)O[C@@H]1[C@@H](C)[C@@]2(O)[C@@H](C=C(CO)C[C@]3(O)C(=O)C(C)=C[C@@H]23)[C@@H]2C(C)(C)[C@]12OC(C)=O` [PMA, phorbol 12-myristate 13-acetate], the “effect on Csp1 transcript level” value with Csp1 transcripts is “weak yet detectable stimulation of Csp1 transcription”.

“Csp3: Third calcipressin family member, cDNA cloned from activated murine T cells; amino acid sequence SEQ ID No: 24”: the “inhibition of NF-AT nuclear import driven by constitutively active calcineurin (ΔCnA)” value in series [1] was “inhibits the calcineurin mediated translocation of NFAT”.

Consider “Csp2: Calcipressin 2, murine homolog of ZAKI-4, endogenous inhibitor of calcineurin; amino acid sequence SEQ ID No: 5”, for which, in series [2], the NF-AT4 phosphorylation state entry is recorded as “hyperphosphorylated despite calcium ionophore treatment”. For the same compound, the “binding to calcineurin in two-hybrid yeast strains” value in series [3] is “specifically bind to the catalytic subunit of calcineurin (CnA)”. The “inhibition of pNPP hydrolysis by calcineurin” value in series [4] was “blocked the hydrolysis of pNPP by calcineurin”. Further, in series [5], the IC50 worked out at 5 nM. Besides, the “typical yield of total protein in the soluble fraction” value in series [6] (full length molecule expressed in E. coli at 15, 22, or 30° C.) is reported as 3%. For the same compound, in series [1], the “inhibition of NF-AT4 nuclear import stimulated by calcium ionophore” value is recorded as “profound suppression” and the “inhibition of NF-AT nuclear import driven by constitutively active calcineurin (ΔCnA)” value is “strong inhibitors of ΔCnA-induced NF-AT nuclear import”.

`C/C=C/CC(C)(C)[C@@H](O)C1C(=O)N[C@@H](CC)C(=O)N(C)CC(=O)N(C)[C@@H](CC(C)C)C(=O)N[C@@H](C(C)C)C(=O)N(C)[C@@H](CC(C)C)C(=O)N[C@@H](C)C(=O)N[C@H](C)C(=O)N(C)[C@@H](CC(C)C)C(=O)N(C)[C@@H](CC(C)C)C(=O)N(C)[C@@H](C(C)C)C(=O)N1C` (some centres unmarked) [MeBm2t-CsA]: the “effect on calcineurin-induced apoptosis” value in series [7] is on record as “augment the apoptotic effect of calcineurin to a greater extent than CsA”.

“Csp1 101-197: Csp1 lacking the N-terminus; C-terminal half of Csp1 (amino acids 101-197)”: the “fraction of molecule soluble in E. coli” value in series [6] (truncated molecule expressed in E. coli) was “approximately 70%”. The “inhibition of NF-AT4 nuclear import stimulated by calcium ionophore” value in series [1] was “sufficient to inhibit the nuclear import of NF-AT4”.

As to “Csp1: Calcipressin 1, murine homolog of DSCR1, endogenous inhibitor of calcineurin; amino acid sequence SEQ ID No: 4”, the IC50 in series [5] stood at 2 nM.

For `C[C@H](CCC(=O)O)C[C@H](C)C[C@H](C)C(=O)/C=C(\O)[C@H](C)C[C@H](C)C/C=C/[C@@H](C)[C@@H](O)[C@@H](C)[C@@H](O)C[C@@H]1CC[C@@](C)([C@H]2CC[C@@](C)([C@@H](C)O)O2)O1` [ionomycin], the “effect on Csp1 transcript level” value in the series with Csp1 transcripts is “not significantly elevated”.
